# According to paper PMC3410856, “Structural Analysis of Specific Metal Chelating Inhibitor Binding to the Endonuclease Domain of Influenza pH1N1 (2009) Polymerase” (PLoS Pathogens, 2012):
# Read-outs that look alike come from different tables or passages of the source.
# Assays:
# [1] = tested on: Influenza A virus A/Aichi/2/68 (H3N2); assay: microbe, parasite or virus in culture; format: cell-based; settings: MDCK cells, MOI 0.05, 48 h, CellTiter-Glo, 95% confidence intervals; for IC50: Influenza A virus, H3N2, read-out: antiviral activity IC50 (reduction of virus induced cytopathic effect)
# H1N1 PA-Nter = target: T1, H1N1 PA-Nter (Influenza A virus, UniProt C3W5S0); format: binding
# T1 construct: PA-N-ter (residues 1–198) from A/California/04/2009-pH1N1; made in house; host or cells: E. coli BL21(DE3)
# in vitro = settings: dog
# influenza polymerase = settings: read-out: IC50 in vitro cap-dependent transcriptase assay; cited from earlier work
Structure (SMILES),antiviral activity IC50 (reduction of virus induced cytopathic effect) [1],antiviral activity IC50 (reduction of virus induced cytopathic effect) ([1]; listed as DBPA),"Tm (apparent melting temperature) (H1N1 PA-Nter; 5 µM PA-Nter, 500 µM inhibitor, no ligand 53.5) [°C]",CC50 (in vitro) [µM],IC50 [1] [µM],Tm (apparent melting temperature) (H1N1 PA-Nter) [°C],IC50 (influenza polymerase) [nM]
"O=C(O)C(=O)CC(=O)c1ccccc1 [DPBA, 2,4-dioxo-4-phenylbutanoic acid]",inactive,did not show any inhibitory effect,65,> 200,–,–,–
"O=C(O)/C(O)=C/C(=O)C1(Cc2ccc(Cl)cc2)CCN(CC2CCCCC2)CC1 [R05-2, 4-[1-cyclohexylmethyl-4-(p-chlorobenzyl)piperidin-4-yl]2,4-dioxobutanoic acid]",–,–,–,> 50,15.9 ± 4,71,–
"O=C(O)/C(O)=C/C(=O)C1(Cc2ccc(Cl)cc2)CCCN(S(=O)(=O)Cc2ccccc2)C1 (stereo not shown) [R05-1, 4-[3-[(4-chlorophenyl)methyl]-1-(phenylmethylsulpho)-3-piperidinyl]-2-hydroxy-4-oxo-2-butenoic acid]",–,–,–,> 100,20.4 ± 3,69,190
"O=C(O[C@@H]1Cc2c(O)cc(O)cc2O[C@@H]1c1cc(O)c(O)c(O)c1)c1cc(O)c(O)c(O)c1 [EGCG, [(2R,3R)-5,7-dihydroxy-2-(3,4,5-trihydroxyphenyl)chroman-3-yl]3,4,5-trihydroxybenzoate]",–,–,–,54.7 ± 4.5,1.1 ± 0.4,–,–
"O=C(O)/C(O)=C/C(=O)C1(Cc2ccc(Cl)cc2)CCCN(Cc2ccccc2)C1 (stereo not shown) [R05-3, 4-[N-benzyl-3-(4-chlorobenzyl)piperidin-3-yl]2,4-dioxobutanoic acid]",–,–,–,79.8 ± 11.5,19.9 ± 2,69,–
